Holding throughout (assay type): cell-based
One assay addresses rat mGlu2 (Rattus norvegicus (Rat), UniProt P31421). Put plainly: mGlu2 Ca2+ flux assay. The note with it: NAM, glutamate EC80; >30,000 = no measurable activity. (In general: Calcium assays in cells follow changes in intracellular calcium, usually with a dye or a luminescent sensor.)
Another assay has as its target rat mGlu3 (Rattus norvegicus (Rat), UniProt P31422). Put plainly: mGlu3 Ca2+ flux assay. To be noted: for IC50: NAM, glutamate EC80, >10,000 = decrease without plateau, >30,000 = no measurable activity; for remaining activity at 30 µM: response at 30 μM test compound as percentage of maximal response to glutamate, read-out: rat mGlu3 Glu max (%).
In the next assay the target is rat mGlu5 (Rattus norvegicus (Rat), UniProt P31424). Briefly: mGlu5 Ca2+ flux assay. To be noted: for activity at 30 µM: read-out: rat mGlu5 Glu max (%). On the procedure:
HEK 293A cells stably expressing rat mGlu5 were plated in black-walled, clear-bottomed, poly-D-lysine coated 384-well plates in 20 μL of assay medium (DMEM containing 10% dialyzed FBS, 20 mM HEPES, 100 units/mL penicillin/streptomycin plus 250 ng/mL Fungizone, and 1 mM sodium pyruvate) at a density of 20K cells/well. The cells were grown overnight at 37° C. in the presence of 5% CO2. The next day, medium was removed and the cells incubated with 20 μL of […] Fluo-4, AM prepared as a 2.3 mM stock in DMSO and mixed in a 1:1 ratio with 10% (w/v) pluronic acid F-127 and diluted in assay buffer (Hank's balanced salt solution, 20 mM HEPES, and 2.5 mM probenecid) for 45 minutes at 37° C. Dye was removed, 20 μL of assay buffer was added, and the plate was incubated for 5 minutes at room temperature.
Ca^2+ flux was measured using the Functional Drug Screening System (FDSS7000, Hamamatsu, Japan). After establishment of a fluorescence baseline for about 3 seconds, the compounds of the present invention were added to the cells, and the response in cells was measured. 2.3 minutes later an EC20 concentration of the mGlu5 receptor agonist glutamate was added to the cells, and the response of the cells was measured for 1.9 minutes; an EC80 concentration of agonist was added and readings taken for an additional 1.7 minutes. All test compounds were dissolved and diluted to a concentration of 10 mM in 100% DMSO. Compounds were then serially diluted 1:3 in DMSO into 10 point concentration response curves, transferred to daughter plates, and further diluted into assay buffer to a 2× stock. Calcium fluorescence measures were recorded as fold over basal fluorescence; raw data was then normalized to the maximal response to glutamate.
The raw data file containing all time points was used as the data source in the analysis template. This was saved by the FDSS as a tab-delimited text file. Data were normalized using a static ratio function (F/F0) for each measurement of the total 360 values per well divided by each well's initial value. Data were then reduced to peak amplitudes (Max−Initial Min) using a time range that starts approximately 3 seconds prior to the glutamate EC20/EC80 addition and continues for approximately 90-120 seconds. This is sufficient time to capture the peak amplitude of the cellular calcium response. Individual amplitudes were expressed as % EMax by multiplying each amplitude by 100 and then dividing the product by the mean of the amplitudes derived from the glutamate ECMax-treated wells. EC50 values for test compounds were generated by fitting the normalized values versus the log of the test compound concentration (in mol/L) using a 4 parameter logistic equation where none of the parameters were fixed. Each of the three values collected at each concentration of test compound were weighted evenly.

[1] abbreviates: PAM, glutamate EC20, >10,000 = no plateau, >30,000 = no measurable activity, read-out: rat mGlu5 EC50 or IC50.
Setting [2] is: PAM, response at 30 μM test compound as percentage of maximal response to glutamate.

Results on 19 compounds are retold here after patent US10399948B2, “Negative allosteric modulators of metabotropic glutamate receptor 3” (Vanderbilt University, priority 2015, dated 2019).

Read-outs that look alike come from different tables or passages of the source.

Chain of rat mGlu2 (P31421 19-872): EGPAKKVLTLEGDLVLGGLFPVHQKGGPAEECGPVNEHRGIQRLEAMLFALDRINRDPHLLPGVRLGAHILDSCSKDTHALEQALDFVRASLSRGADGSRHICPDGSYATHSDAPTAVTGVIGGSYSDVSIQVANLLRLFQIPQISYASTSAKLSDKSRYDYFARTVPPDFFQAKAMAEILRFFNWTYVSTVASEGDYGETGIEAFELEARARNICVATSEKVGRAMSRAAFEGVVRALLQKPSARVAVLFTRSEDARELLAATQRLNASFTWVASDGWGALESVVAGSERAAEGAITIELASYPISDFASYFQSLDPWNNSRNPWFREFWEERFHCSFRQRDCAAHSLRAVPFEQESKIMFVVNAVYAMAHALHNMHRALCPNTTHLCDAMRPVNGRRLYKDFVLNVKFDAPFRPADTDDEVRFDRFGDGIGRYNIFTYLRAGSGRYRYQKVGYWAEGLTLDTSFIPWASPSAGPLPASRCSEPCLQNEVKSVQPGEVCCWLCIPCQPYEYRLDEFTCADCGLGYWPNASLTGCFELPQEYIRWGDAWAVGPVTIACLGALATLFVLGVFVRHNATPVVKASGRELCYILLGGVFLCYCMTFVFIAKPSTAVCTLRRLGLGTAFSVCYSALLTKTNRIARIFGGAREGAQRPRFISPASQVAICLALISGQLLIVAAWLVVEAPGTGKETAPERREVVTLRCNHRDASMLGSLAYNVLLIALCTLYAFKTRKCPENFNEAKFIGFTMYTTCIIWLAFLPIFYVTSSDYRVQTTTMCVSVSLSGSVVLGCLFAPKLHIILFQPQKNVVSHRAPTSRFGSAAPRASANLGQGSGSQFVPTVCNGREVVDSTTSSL
Chain of rat mGlu3 (P31422 23-879): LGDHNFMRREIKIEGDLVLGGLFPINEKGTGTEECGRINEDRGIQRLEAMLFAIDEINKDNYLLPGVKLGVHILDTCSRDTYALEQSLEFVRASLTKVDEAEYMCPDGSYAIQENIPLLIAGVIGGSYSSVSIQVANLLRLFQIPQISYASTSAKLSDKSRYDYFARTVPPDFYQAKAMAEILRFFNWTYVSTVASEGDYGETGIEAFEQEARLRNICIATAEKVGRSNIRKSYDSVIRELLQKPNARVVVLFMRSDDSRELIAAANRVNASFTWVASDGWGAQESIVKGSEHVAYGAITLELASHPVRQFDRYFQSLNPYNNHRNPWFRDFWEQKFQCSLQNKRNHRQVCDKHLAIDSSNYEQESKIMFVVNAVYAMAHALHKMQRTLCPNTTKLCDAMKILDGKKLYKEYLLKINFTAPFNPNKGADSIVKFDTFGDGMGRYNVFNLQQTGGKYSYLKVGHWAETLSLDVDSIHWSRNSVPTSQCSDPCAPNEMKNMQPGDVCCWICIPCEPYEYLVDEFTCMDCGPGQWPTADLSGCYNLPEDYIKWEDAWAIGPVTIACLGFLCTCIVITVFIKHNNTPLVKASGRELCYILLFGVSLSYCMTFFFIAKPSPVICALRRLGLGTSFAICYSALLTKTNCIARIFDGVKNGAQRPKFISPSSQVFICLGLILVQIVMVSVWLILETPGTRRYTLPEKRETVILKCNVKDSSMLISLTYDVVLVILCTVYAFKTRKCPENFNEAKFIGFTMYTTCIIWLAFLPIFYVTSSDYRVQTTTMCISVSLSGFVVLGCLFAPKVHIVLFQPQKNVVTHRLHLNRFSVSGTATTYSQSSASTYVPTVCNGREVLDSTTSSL
Chain of rat mGlu5 (P31424 21-1203): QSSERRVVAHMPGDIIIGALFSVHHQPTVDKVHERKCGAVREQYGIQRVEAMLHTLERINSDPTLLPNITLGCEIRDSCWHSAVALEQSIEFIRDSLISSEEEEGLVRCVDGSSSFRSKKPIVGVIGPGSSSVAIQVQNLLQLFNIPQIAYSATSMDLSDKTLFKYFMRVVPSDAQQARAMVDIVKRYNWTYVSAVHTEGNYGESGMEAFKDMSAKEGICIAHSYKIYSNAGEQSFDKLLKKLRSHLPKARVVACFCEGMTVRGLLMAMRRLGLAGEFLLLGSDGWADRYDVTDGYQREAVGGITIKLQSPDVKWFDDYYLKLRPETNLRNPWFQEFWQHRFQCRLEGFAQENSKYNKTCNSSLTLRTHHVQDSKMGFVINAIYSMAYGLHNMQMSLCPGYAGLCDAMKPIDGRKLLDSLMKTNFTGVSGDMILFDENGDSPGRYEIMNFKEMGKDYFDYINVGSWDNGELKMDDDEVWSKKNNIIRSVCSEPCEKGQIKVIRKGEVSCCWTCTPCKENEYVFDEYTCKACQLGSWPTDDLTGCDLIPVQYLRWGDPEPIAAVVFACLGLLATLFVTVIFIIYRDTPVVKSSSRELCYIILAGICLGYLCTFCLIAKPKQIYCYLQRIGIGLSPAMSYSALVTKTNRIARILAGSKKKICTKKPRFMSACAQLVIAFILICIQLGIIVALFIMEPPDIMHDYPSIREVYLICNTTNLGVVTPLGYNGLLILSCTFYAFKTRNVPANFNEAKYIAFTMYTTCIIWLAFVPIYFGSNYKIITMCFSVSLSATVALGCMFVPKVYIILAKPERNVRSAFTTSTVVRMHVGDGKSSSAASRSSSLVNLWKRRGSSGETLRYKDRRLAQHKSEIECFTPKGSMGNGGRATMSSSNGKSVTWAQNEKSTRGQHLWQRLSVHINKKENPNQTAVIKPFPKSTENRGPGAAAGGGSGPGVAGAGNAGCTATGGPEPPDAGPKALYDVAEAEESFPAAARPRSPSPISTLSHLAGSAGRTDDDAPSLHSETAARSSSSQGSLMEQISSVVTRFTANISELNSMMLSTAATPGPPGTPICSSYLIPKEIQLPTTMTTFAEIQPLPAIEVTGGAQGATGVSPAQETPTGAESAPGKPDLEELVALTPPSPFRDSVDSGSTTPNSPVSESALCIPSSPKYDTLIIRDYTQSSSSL

`O=c1nc(OCCOc2ccccc2)ccn1-c1ccc(F)c(F)c1` [Compound 15, 1-(3,4-difluorophenyl)-4-(2-phenoxyethoxy)pyrimidin-2(1H)-one] registered a concentration for half-maximal inhibition (IC50) against rat mGlu2 greater than 30000 nM. Also, on rat mGlu3, the half-maximal inhibitory concentration (IC50) was 219 nM and the remaining activity at 30 µM worked out at 2.44%. Besides, the concentration for a half-maximal effect (EC50) on rat mGlu5 (setting [1]) came to 427 nM. In addition, the activity at 30 µM at rat mGlu5 (setting [2]) amounted to 83%.

With `O=c1nc(OCCOc2ccccc2)ccn1-c1ccc(F)cc1` [Compound 17, 1-(4-Fluorophenyl)-4-(2-phenoxyethoxy)pyrimidin-2(1H)-one], the 50% inhibitory concentration (IC50) against rat mGlu2 is greater than 30000 nM. Moreover, on rat mGlu3, the half-inhibitory concentration (IC50) turned out to be 211 nM and the remaining activity at 30 µM was 1.84%. The EC50 on rat mGlu5 (setting [1]) was 1190 nM. The activity at 30 µM at rat mGlu5 (setting [2]) amounted to 96.8%.

On to `O=c1cc(OCCOc2ccccc2)ccn1-c1ccc(F)cc1` [Compound 18, 1-(4-Fluorophenyl)-4-(2-phenoxyethoxy)pyridin-2(1H)-one], for which the concentration for half-maximal inhibition (IC50) is greater than 30000 nM against rat mGlu2 and 725 ± 227 nM against rat mGlu3. For the same compound, on rat mGlu3, the remaining activity at 30 µM was 1.45 ± 0.14%. The compound also had an EC50 at rat mGlu5 of 567 nM. The activity at 30 µM on rat mGlu5 (setting [2]) is 97.3%.

At rat mGlu2, `O=c1cc(OCCOc2ccccc2)ccn1-c1cccc(F)c1` [Compound 19, 1-(3-fluorophenyl)-4-(2-phenoxyethoxy)pyridin-2(1H)-one] showed an IC50 greater than 30000 nM. In addition, on rat mGlu3, the IC50 was 434 nM and the remaining activity at 30 µM worked out at 2.01%. The compound also came in with a concentration for a half-maximal effect (EC50) on rat mGlu5 of 1970 nM. For the same compound, on rat mGlu5 (setting [2]), the activity at 30 µM worked out at 88%.

As for `O=c1cc(OCCOc2ccccc2)ccn1-c1ccc(F)c(F)c1` [Compound 20, 1-(3,4-difluorophenyl)-4-(2-phenoxyethoxy)pyridin-2(1H)-one], the IC50 on rat mGlu2 was greater than 30000 nM; at rat mGlu3 it was 323 nM. Further, the remaining activity at 30 µM on rat mGlu3 turned out to be 1.63%. The compound further returned a 50% effective concentration (EC50) at rat mGlu5 of 344 nM. For the same compound, the activity at 30 µM at rat mGlu5 (setting [2]) is 91%.

With `N#Cc1cccc(-n2ccc(OCCOc3ccccc3)cc2=O)c1` [Compound 22, 3-(2-oxo-4-(2-phenoxyethoxy)pyridin-1(2H)-yl)benzonitrile], the half-inhibitory concentration (IC50) at rat mGlu2 is greater than 30000 nM. Besides, at rat mGlu3, the half-maximal inhibitory concentration (IC50) came to 559 nM and the remaining activity at 30 µM was 1.16%. Further, at rat mGlu5 (setting [1]), the EC50 stood at 6020 nM. The activity at 30 µM at rat mGlu5 (setting [2]) is 87%.

Regarding `N#Cc1cc(F)cc(-n2ccc(OCCOc3ccccc3)cc2=O)c1` [Compound 23, 3-fluoro-5-(2-oxo-4-(2-phenoxyethoxy)pyridin-1(2H)-yl)benzonitrile], the values for the IC50 at rat mGlu2 and against rat mGlu3 were greater than 30000 nM and 522 nM, respectively. Also, the remaining activity at 30 µM on rat mGlu3 is 3.44%. The EC50 at rat mGlu5 (setting [1]) turned out to be 1310 nM. For the same compound, the activity at 30 µM on rat mGlu5 (setting [2]) is 26.8%.

`O=c1cc(OCCOc2ccccc2)ncn1-c1ccc(F)cc1` [Compound 28, 3-(4-Fluorophenyl)-6-(2-phenoxyethoxy)pyrimidin-4(3H)-one] came in with an IC50 against rat mGlu2 greater than 30000 nM. Further, at rat mGlu3, it took 1270 nM to reach half-maximal inhibition (IC50) and the remaining activity at 30 µM was 10.1%. For the same compound, the concentration for a half-maximal effect (EC50) at rat mGlu5 (setting [1]) amounted to 1220 nM. Besides, at rat mGlu5 (setting [2]), the activity at 30 µM is 89.8%.

Turning to `O=c1cc(OCCOc2ccccc2F)ccn1-c1ccc(F)cc1` [Compound 30, 4-(2-(2-fluorophenoxy)ethoxy)-1-(4-fluorophenyl)pyridin-2(1H)-one], the IC50 against rat mGlu2 was greater than 30000 nM; against rat mGlu3 it was 897 nM. On rat mGlu3, the remaining activity at 30 µM came out at 2.48%. The EC50 on rat mGlu5 (setting [1]) worked out at 1870 nM. The activity at 30 µM on rat mGlu5 (setting [2]) was 92.8%.

As to `O=c1cc(OCCOc2cccc(F)c2)ccn1-c1ccc(F)cc1` [Compound 31, 4-(2-(3-fluorophenoxy)ethoxy)-1-(4-fluorophenyl)pyridin-2(1H)-one], the IC50 against rat mGlu2 was greater than 30000 nM. In addition, at rat mGlu3, the 50% inhibitory concentration (IC50) came out at 514 nM and the remaining activity at 30 µM stood at 1.95%. Also, on rat mGlu5 (setting [1]), the EC50 was 1460 nM. In addition, at rat mGlu5 (setting [2]), the activity at 30 µM was 93.2%.

As for `O=c1cc(OCCOc2ccc(F)cc2)ccn1-c1ccc(F)cc1` [Compound 32, 4-(2-(4-fluorophenoxy)ethoxy)-1-(4-fluorophenyl)pyridin-2(1H)-one], the IC50 against rat mGlu2 was greater than 30000 nM; at rat mGlu3, 1050 nM. For the same compound, the remaining activity at 30 µM at rat mGlu3 was -0.56%. Further, at rat mGlu5 (setting [1]), the concentration for a half-maximal effect (EC50) is 1500 nM. Moreover, the activity at 30 µM at rat mGlu5 (setting [2]) was determined as 94.1%.

As for `O=c1cc(OCCOc2cccc(F)c2F)ccn1-c1ccc(F)cc1` [Compound 33, 4-(2-(2,3-difluorophenoxy)ethoxy)-1-(4-fluorophenyl)pyridin-2(1H)-one], the IC50 at rat mGlu2 is greater than 30000 nM; against rat mGlu3, 917 nM. Also, at rat mGlu3, the remaining activity at 30 µM was -0.23%. Besides, at rat mGlu5 (setting [1]), the concentration giving a half-maximal response (EC50) stood at 6850 nM. In addition, the activity at 30 µM on rat mGlu5 (setting [2]) turned out to be 94.1%.

`O=c1cc(OCCOc2ccc(Cl)cc2)ccn1-c1ccc(F)cc1` [Compound 39, 4-(2-(4-chlorophenoxy)ethoxy)-1-(4-fluorophenyl)pyridin-2(1H)-one]: the half-maximal inhibitory concentration (IC50) against rat mGlu2 is greater than 30000 nM. Besides, at rat mGlu3, half-maximal inhibition (IC50) was put at 634 nM and the remaining activity at 30 µM turned out to be 1.56%. Moreover, the 50% effective concentration (EC50) at rat mGlu5 (setting [1]) turned out to be 10000 nM. The activity at 30 µM on rat mGlu5 (setting [2]) was 81.1%.

Consider `N#Cc1cccc(OCCOc2ccn(-c3ccc(F)cc3)c(=O)c2)c1` [Compound 41, 3-(2-((1-(4-fluorophenyl)-2-oxo-1,2-dihydropyridin-4-yl)oxy)ethoxy)benzonitrile], for which the 50% inhibitory concentration (IC50) on rat mGlu2 was greater than 30000 nM; on rat mGlu3, 715 nM; on rat mGlu5 (noted as weak NAM, glutamate EC80, read-out: rat mGlu5 EC50 or IC50), greater than 10000 nM. The remaining activity at 30 µM on rat mGlu3 amounted to 0.13%. For the same compound, the activity at 30 µM on rat mGlu5 (noted as weak NAM, response at 30 μM test compound) stood at 29.1%.

Turning to `O=c1cc(OCCOc2ccc(F)nc2)ccn1-c1ccc(F)cc1` [Compound 45, 1-(4-fluorophenyl)-4-(2-((6-fluoropyridin-3-yl)oxy)ethoxy)pyridin-2(1H)-one], at rat mGlu2, the half-inhibitory concentration (IC50) is greater than 30000 nM. Besides, at rat mGlu3, the half-maximal inhibitory concentration (IC50) was 701 nM and the remaining activity at 30 µM amounted to 0.88%. Also, on rat mGlu5 (setting [1]), the EC50 is greater than 10000 nM. In addition, the activity at 30 µM on rat mGlu5 (setting [2]) turned out to be 35.5%.

Turning to `O=c1cc(OCCOc2cc(Cl)ccn2)ccn1-c1ccc(F)cc1` [Compound 49, 4-(2-((4-Chloropyridin-2-yl)oxy)ethoxy)-1-(4-fluorophenyl)pyridin-2(1H)-one], the IC50 at rat mGlu2 is greater than 30000 nM. In addition, at rat mGlu3, it took 563 nM to reach half-maximal inhibition (IC50) and the remaining activity at 30 µM stood at 0.73%. Further, the EC50 at rat mGlu5 (setting [1]) worked out at 8800 nM. Also, the activity at 30 µM at rat mGlu5 (setting [2]) worked out at 82.3%.

For the compound `O=c1cc(OCCOc2ncccc2Cl)ccn1-c1ccc(F)cc1` [Compound 54, 4-(2-((3-chloropyridin-2-yl)oxy)ethoxy)-1-(4-fluorophenyl)pyridin-2(1H)-one], at rat mGlu2, the IC50 was greater than 30000 nM. Besides, at rat mGlu3, 443 nM corresponded to half-maximal inhibition (IC50) and the remaining activity at 30 µM turned out to be 0.96%. Moreover, the half-maximal effective concentration (EC50) on rat mGlu5 (setting [1]) was found to be 7820 nM. Also, the activity at 30 µM at rat mGlu5 (setting [2]) came to 94%.

As to `O=c1cc(OCCOc2ccc(Cl)cn2)ccn1-c1ccc(F)cc1` [Compound 55, 4-(2-((5-chloropyridin-2-yl)oxy)ethoxy)-1-(4-fluorophenyl)pyridin-2(1H)-one], the half-inhibitory concentration (IC50) against rat mGlu2 is greater than 30000 nM. On rat mGlu3, the 50% inhibitory concentration (IC50) stood at 729 nM and the remaining activity at 30 µM is 0.32%. Also, the 50% effective concentration (EC50) at rat mGlu5 (setting [1]) was greater than 10000 nM. The activity at 30 µM at rat mGlu5 (setting [2]) amounted to 25.2%.

Consider `N#Cc1ccnc(OCCOc2ccn(-c3ccc(F)cc3)c(=O)c2)c1` [Compound 57, 2-(2-((1-(4-fluorophenyl)-2-oxo-1,2-dihydropyridin-4-yl)oxy)ethoxy)isonicotinonitrile], for which the concentration for half-maximal inhibition (IC50) at rat mGlu2 was greater than 30000 nM. In addition, on rat mGlu3, the half-inhibitory concentration (IC50) is 753 nM and the remaining activity at 30 µM was -0.4%. For the same compound, the concentration giving a half-maximal response (EC50) on rat mGlu5 (setting [1]) was greater than 10000 nM. On rat mGlu5 (setting [2]), the activity at 30 µM amounted to 38.7%.

In general, IC50 refers to the concentration that inhibits the measured activity by half. As a reminder, the EC50 is the concentration needed to bring the measured effect to its halfway point.
